From publication PMC12810539, “EGFR-targeted gadolinium contrast agents for enhanced molecular magnetic resonance imaging of tumors” (The Journal of Biological Chemistry, 2025)

What was measured:
[1] = target: T1, EGFR (Homo sapiens, UniProt P00533); test: EGFR inhibition assay (competitive cell binding with anti-EGFR antibody C225); format: cell-based; settings: all tested cell lines, 5 μg/ml C225 preincubation 12 h, then 50 μM Gd for 1 h, ICP-MS
T1 construct: endogenous in cells; host or cells: MDA-MB-231, A549, SGC-7901, SW480, U138 MG (human tumour cell lines, CCTCC)
Experimental: To further verify the receptor-binding affinity and specificity of EBP-Gd-DO3A and EBP-(Gd-DO3A)3, a competitive cell-binding assay was carried out. MDA-MB-231, A549, SGC-7901, SW480, and U138 MG cells were preincubated with fresh serum-free medium containing 5 μg/ml anti-EGFR monoclonal antibody C225 (ImClone Systems, Inc., New York, NY) for 12 h at 37 °C. The culture supernatant was removed from the resulting solution, followed by the addition of EBP-Gd-DO3A, EBP-(Gd-DO3A)3, or Gadovist at a Gd concentration of 50 μM for the indicated time points. The cellular Gd content was measured by ICP-MS as described above, and the C225-induced reduction in the cellular Gd accumulation was used to calculate an inhibition index of cellular Gd uptake ([34]).

[2] = Longitudinal and transverse relaxivity at 3T MRI; format: physicochemical; settings: in water, 37 °C, slope of 1/T1 versus Gd concentration (0-0.5 mM)
Experimental: The EBP-Gd-DO3A and EBP-(Gd-DO3A)3 conjugates were confirmed by matrix-assisted laser desorption/ionization time-of-flight (MALDI-TOF) mass spectrometry (Applied Biosystems) in a linear mode with 2,5-dihydroxybenzoic acid (2,5-DHB) as the matrix. The Gd content in the conjugates was determined by ICP-MS (Thermo Fisher Scientific) ([31]). […] Serial dilutions of EBP-Gd-DO3A, EBP-(Gd-DO3A)3, and Gadovist were prepared in water at Gd concentrations of 0.5, 0.25, 0.125, 0.0625, 0.03125, and 0 mM. The relaxivity measurements were performed on a 3T MRI scanner (Trio, Siemens). T1 was measured using an inversion recovery method with a variable inversion time ranging from 50 to 1750 ms. T2 was measured using a Carr-Purcell-Meiboom-Gill sequence with 500 echoes collected. The relaxivities (r1 and r2) of the agents were calculated from the slopes of the plots of 1/T1 and 1/T2 versus the Gd concentrations.

[3] = system: MDA-MB-231, A549, SGC-7901, SW480 and U138 MG cells; test: In vitro MR imaging of labelled tumor cells, with and without C225; format: cell-based, human; settings: for MR enhancement effect in MDA-MB-231, A549, SGC-7901 and SW480 tumor cells / MR enhancement effect in U138MG cell line: 37 °C, 11.7 T MR microimaging of cell pellets; for MRI signal of cells pretreated with versus without C225: C225 preincubation 12 h, then 50 μM Gd for 24 h, all tested cell lines
Experimental: For the in vitro MRI assay, MDA-MB-231, A549, SGC-7901, SW480, and U138 MG cells were seeded into 100 mm × 20 mm cell culture dishes at a density of approximately 1 × 10^6 cells per dish and incubated with EBP-Gd-DO3A, EBP-(Gd-DO3A)3 or Gadovist at a Gd concentration of 50 μM for 24 h at 37 °C. After the completion of the labelling, the cells were washed with PBS 3 times and collected into 1.5 mm-i.d. capillary tubes that were centrifuged at 1400 rpm for 5 min to enable cells to be well packed in the bottom of the capillary for the MRI. The in vitro MRI experiments were performed on an 11.7 T Bruker NMR spectrometer that functioned as an MR microimaging system with a maximum gradient strength of 1.0 T/m. A linear 15-mm-i.d birdcage coil was used for radiofrequency transmission and signal reception. The parameters used for acquiring images were TR = 500 ms, TE = 5.2 ms, FOV = 12 × 12 mm^2, matrix = 96 × 96, flip angle = 90°, slice thickness/gap = 0.8/0.2 mm and number of averages = 4.
The C225-preincubated cells described above were imaged with MRI to observe the contrast enhancement effects. The method used for the MR imaging of cell pellets was the same as that for the in vitro MR imaging of the conjugates described above.

[4] = In vivo biodistribution: plasma, kidney, liver, heart (ICP-MS); set-up: species or system SCID mice; settings: for Gd content in the kidneys / plasma Gd level over time: tumor-bearing SCID mice, ICP-MS; for Gd content in the kidneys: mean ± SD, 6 animals per group; for plasma Gd level over time: 0.25-48 h
Experimental: (§1) The 6- to 8-week-old male non-obese diabetic (NOD)/severe-combined immunodeficient (SCID) mice were used to establish MDA-MB-231 (EGFR-overexpressing) and U138 MG (non-EGFR-overexpressing) xenograft models ([35]). The mice were obtained from the Experimental Animal Center of Tongji Medical College, Huazhong University of Science and Technology, and all the experimental procedures involving animals were further approved by the Animal Care and Use Committee of Huazhong University of Science and Technology. The mice were housed separately in polycarbonate cages and provided with food and water. Tumors were grown under the skin by s.c. injection of 1 × 10^6-3 × 10^6 cells. The mice were randomized into groups for the biodistribution assay and MR imaging in vivo when the xenografts reached 5 to 7 mm in diameter. All procedures were approved by the Institutional Animal Care and Use Committee of Huazhong University of Science and Technology (approval no.270193).
(§2) The tumor-bearing SCID mice were randomly divided into groups, with 6 animals in each group, an injected via the tail vein with 50 μM Gd/kg EBP-Gd-DO3A, EBP-(Gd-DO3A)3, or Gadovist. At the selected time points (0.25, 0.5, 1, 2, 4, 8, 24, and 48 h) after injection, blood was collected and centrifuged to separate the plasma. Then, organ and tissue samples, including the kidneys, liver, heart, and tumor, were collected and weighed. The tissue samples were liquefied for 1 week and then transferred into centrifuge tubes and centrifuged at 14,000 rpm for 5 min. The resulting supernatants were diluted tenfold with deionized water and centrifuged again under the same conditions. The Gd concentration in the samples was measured by ICP-MS ([36]).

[5] = system: MDA-MB-231 tumor xenografts; test: In vivo biodistribution: tumor Gd content (ICP-MS); settings: SCID mice, mean ± SD; for Gd content in the MDA-MB-231 tumor tissues (peak): 4 h after single i.v. 50 μM Gd/kg
Experimental: as §1, §2

[6] = 2 h after single i.v. 50 μM Gd/kg
[7] = 24 h after single i.v. 50 μM Gd/kg
[8] = 0.5 h after single i.v. 50 μM Gd/kg

Row | cellular Gd accumulation with versus without C225 pretreatment [1] | Gd content in the kidneys [4, 8] | Gd retention in the liver and heart ([4]; single i.v. 50 μM Gd/kg, compared with EBP-Gd-DO3A and EBP-(Gd-DO3A)3, ICP-MS) | Gd content in the MDA-MB-231 tumor tissues [5, 8] | Gd content in the MDA-MB-231 tumor tissues [5, 6] | Compound | longitudinal relaxivity (r1) [2] | MR enhancement effect in MDA-MB-231, A549, SGC-7901 and SW480 tumor cells ([3]; 50 μM Gd, 24 h) | MR enhancement effect in U138MG cell line ([3]; 50 μM Gd, 24 h) | MRI signal of cells pretreated with versus without C225 [3] | Gd content in the kidneys [4, 6] | Gd content in the kidneys ([4]; 8 h after single i.v. 50 μM Gd/kg) | Gd content in the kidneys [4, 7] | plasma Gd level over time ([4]; single i.v. 50 μM Gd/kg) | Gd content in the MDA-MB-231 tumor tissues (peak) [5] | Gd content in the MDA-MB-231 tumor tissues [5, 7] | T1 signal intensity in cells with different levels of EGFR expression ([3]; 50 μM Gd, 24 h, ROI analysis, p > 0.05) | Gd content in the kidneys ([4]; 4 h after single i.v. 50 μM Gd/kg)
1 | reduced |  |  |  |  | CMYIEALDKYAC [EBP-(Gd-DO3A)3] | 7.24 mM⁻¹ s⁻¹ | strong enhancement effects | much weaker enhancement effect | reduced | 12.40 ± 1.60 nM/g tissue | 8.12 ± 1.28 nM/g tissue | 3.50 ± 1.40 nM/g tissue | maintained at a high level for a much longer time | 30.70 ± 1.90 nM/g tissue | 19.42 ± 1.76 nM/g tissue |  | 
2 | No significant difference | 10.70 ± 2.10 nM/g tissue | relatively high at all time points | 3.36 ± 0.91 nM/g tissue | 1.26 ± 0.46 nM/g tissue | O=C([O-])CN1CCN(CC(=O)[O-])CCN([C@H](CO)[C@H](O)CO)CCN(CC(=O)[O-])CC1.[Gd+3] (racemic) [Gadovist, reference compound] | 3.14 mM⁻¹ s⁻¹ |  |  | no significant difference | 8.73 ± 1.37 nM/g tissue |  | 1.58 ± 0.72 nM/g tissue | rapidly disappeared from circulation |  | no detectable Gd | not significantly different | 
3 | reduced |  |  |  |  | CMYIEALDKYAC [EBP-Gd-DO3A] | 5.08 mM⁻¹ s⁻¹ | strong enhancement effects | much weaker enhancement effect | reduced | 10.76 ± 1.14 nM/g tissue |  | 2.52 ± 0.68 nM/g tissue | maintained at a high level for a much longer time | 17.70 ± 2.10 nM/g tissue | 9.95 ± 1.85 nM/g tissue |  | 8.25 ± 0.75 nM/g tissue
